Several values for one entry are separate records, joined by “and”; a condition that tells them apart may be missing. Identical values can stand only once.
Columns and labels:
Assay type in all cases: physicochemical
[1] = Apparent density of the crystalline forms; conditions: for Apparent density: powder of the crystalline form, paired with the specific surface area of the same line
Excerpt: (§1) The dissolution kinetics promote the xenobiotic bioavailability of this type of active principle. It is also known that the dissolution kinetics are accelerated by increasing the specific surface area. […] Table I below gives the respective values of the apparent density and the specific surface area (BET surface area) for the various crystalline forms.

[2] = Specific surface area (BET) of the crystalline forms; conditions: powder of the crystalline form; paired with the apparent density of the same line
Excerpt: as §1

[3] = Comparative grinding studies (jet micronisation): specific surface area (BET) of batches; conditions: for BET: after grinding, feed pressure, grinding pressure and feed flow differ per batch (batches 1-11, see line of table)
Procedure: In addition, comparative grinding studies, in particular by jet micronisation, were performed so as to obtain powders of the stable and metastable forms having the same specific surface area.
Table II below presents a comparison of the specific surface areas of different batches of the compound of the formula I in which n represents 1 and R in position 7 represents methoxy, obtained by carrying out different grinding conditions.

COc1ccc2c(c1)C(/C=C/C(C)=C/C(=O)O)=CC(C)(C)CO2 [stable, 2E,4E-(methoxy-7-dimethyl-3,3-dihydro-2,3-benzoxepin-1-yl-5)-5-methyl-3-pentadien-2,4-oic acid]
Apparent density [1]: 0.18 and 0.29 and 0.16

COc1ccc2c(c1)C(/C=C/C(C)=C/C(=O)O)=CC(C)(C)CO2 [metastable, 2E,4E-(methoxy-7-dimethyl-3-dihydro-2,3-benzoxepin-1-yl-5)-5-methyl-3-pentadien-2,4-oic Acid]
Specific surface area or BET [2]: 3.1 m^2/g and 2.8 m^2/g | Apparent density of metastable form compared with thermodynamically stable form ([1]; for the same specific surface area value): greater apparent density | Apparent density [1]: 0.30 | BET ([3]; feed 2.0 bar, grinding 1.0 bar, 4.5 kg/h): 6.2 m^2/g | BET ([3]; feed 2.2 bar, grinding 1.2 bar, 5.0 kg/h): 7.2 m^2/g | BET ([3]; feed 2.5 bar, grinding 1.5 bar, 1.5 kg/h): 10.2 m^2/g | BET ([3]; feed 2.5 bar, grinding 1.5 bar, 2.4 kg/h): 9.1 m^2/g | BET ([3]; feed 2.5 bar, grinding 1.5 bar, 6.5 kg/h): 9.2 m^2/g | Specific surface area (BET) after grinding, metastable versus stable form ([3]; jet micronisation, similar operating conditions (feed pressure and grinding pressure)): greater specific surface area (BET) | Suitability for grinding or micronisation ([3]; metastable versus stable form): more suitable for grinding or micronisation
